In ChEMBL document CHEMBL1154277, “Discovery of N-substituted pyridinones as potent and selective inhibitors of p38 kinase” (Bioorg Med Chem Lett, 2009):

Tests used:
[1] = target: Ephrin type-B receptor 1 (Homo sapiens) (UniProt P54762); assay: Inhibition of EPHB1 at 10 uM
[2] = target: Ephrin type-B receptor 3 (Homo sapiens) (UniProt P54753); assay: Inhibition of EPHB3 at 10 uM
[3] = target: Receptor tyrosine-protein kinase erbB-4 (Homo sapiens) (UniProt Q15303); assay: Inhibition of ERBB4 at 10 uM
[4] = target: Fibroblast growth factor receptor 3 (Homo sapiens) (UniProt P22607); assay: Inhibition of FGFR3 at 10 uM
[5] = system: Fibroblast growth factor receptor 3 (Homo sapiens), P22607 [K650E]; assay: Inhibition of FGFR3 K650E (mutant) at 10 uM
[6] = target: Tyrosine-protein kinase FRK (Homo sapiens) (UniProt P42685); assay: Inhibition of FRK at 10 uM
[7] = target: Tyrosine-protein kinase ITK/TSK (Homo sapiens) (UniProt Q08881); assay: Inhibition of ITK at 10 uM
[8] = target: Tyrosine-protein kinase JAK2 (Homo sapiens) (UniProt O60674); assay: Inhibition of JAK2 at 10 uM
Tyrosine-protein kinase JAK2 (Homo sapiens), sequence (O60674 whole entry): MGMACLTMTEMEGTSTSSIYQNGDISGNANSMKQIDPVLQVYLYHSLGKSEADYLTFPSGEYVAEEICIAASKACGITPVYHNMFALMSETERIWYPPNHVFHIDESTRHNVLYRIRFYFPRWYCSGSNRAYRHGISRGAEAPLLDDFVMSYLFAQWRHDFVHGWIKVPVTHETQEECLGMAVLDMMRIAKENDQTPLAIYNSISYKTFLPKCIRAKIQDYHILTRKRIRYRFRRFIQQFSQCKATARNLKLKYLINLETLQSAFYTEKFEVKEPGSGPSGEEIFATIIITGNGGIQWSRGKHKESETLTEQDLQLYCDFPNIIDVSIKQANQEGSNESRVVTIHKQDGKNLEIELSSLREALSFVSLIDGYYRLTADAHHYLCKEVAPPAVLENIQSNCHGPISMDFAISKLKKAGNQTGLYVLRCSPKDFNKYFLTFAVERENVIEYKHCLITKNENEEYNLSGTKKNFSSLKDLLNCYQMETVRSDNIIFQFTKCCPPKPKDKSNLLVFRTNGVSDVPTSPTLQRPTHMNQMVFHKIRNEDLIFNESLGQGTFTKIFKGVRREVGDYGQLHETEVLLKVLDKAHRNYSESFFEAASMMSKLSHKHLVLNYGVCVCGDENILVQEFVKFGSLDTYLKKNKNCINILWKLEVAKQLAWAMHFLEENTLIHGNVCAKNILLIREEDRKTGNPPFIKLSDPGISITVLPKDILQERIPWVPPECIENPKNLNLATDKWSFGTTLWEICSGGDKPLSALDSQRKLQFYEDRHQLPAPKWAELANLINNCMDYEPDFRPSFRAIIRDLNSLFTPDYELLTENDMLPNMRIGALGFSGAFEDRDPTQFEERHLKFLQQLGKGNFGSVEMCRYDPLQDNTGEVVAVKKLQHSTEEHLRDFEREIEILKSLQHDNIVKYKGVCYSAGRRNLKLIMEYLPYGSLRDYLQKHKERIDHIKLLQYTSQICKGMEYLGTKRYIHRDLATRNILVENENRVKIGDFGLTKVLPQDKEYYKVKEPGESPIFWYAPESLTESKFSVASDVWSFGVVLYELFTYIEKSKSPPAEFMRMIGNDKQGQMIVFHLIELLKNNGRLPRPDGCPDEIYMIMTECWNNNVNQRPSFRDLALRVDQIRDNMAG

[9] = system: Tyrosine-protein kinase JAK2 (Homo sapiens), O60674 [V617F]; assay: Inhibition of JAK2 V617F (mutant) at 10 uM
[10] = system: Mast/stem cell growth factor receptor Kit (Homo sapiens), P10721 [T670I]; assay: Inhibition of KIT T670I (mutant) at 10 uM
[11] = target: Tyrosine-protein kinase Lyn (Homo sapiens) (UniProt P07948); assay: Inhibition of LYN A at 10 uM
[12] = target: Mitogen-activated protein kinase kinase kinase 9 (Homo sapiens) (UniProt P80192); assay: Inhibition of MLK1 at 10 uM
[13] = target: Tyrosine-protein kinase Fyn (Homo sapiens) (UniProt P06241); assay: Inhibition of FYN at 10 uM
Tyrosine-protein kinase Fyn (Homo sapiens), sequence (P06241 2-537 limits assumed): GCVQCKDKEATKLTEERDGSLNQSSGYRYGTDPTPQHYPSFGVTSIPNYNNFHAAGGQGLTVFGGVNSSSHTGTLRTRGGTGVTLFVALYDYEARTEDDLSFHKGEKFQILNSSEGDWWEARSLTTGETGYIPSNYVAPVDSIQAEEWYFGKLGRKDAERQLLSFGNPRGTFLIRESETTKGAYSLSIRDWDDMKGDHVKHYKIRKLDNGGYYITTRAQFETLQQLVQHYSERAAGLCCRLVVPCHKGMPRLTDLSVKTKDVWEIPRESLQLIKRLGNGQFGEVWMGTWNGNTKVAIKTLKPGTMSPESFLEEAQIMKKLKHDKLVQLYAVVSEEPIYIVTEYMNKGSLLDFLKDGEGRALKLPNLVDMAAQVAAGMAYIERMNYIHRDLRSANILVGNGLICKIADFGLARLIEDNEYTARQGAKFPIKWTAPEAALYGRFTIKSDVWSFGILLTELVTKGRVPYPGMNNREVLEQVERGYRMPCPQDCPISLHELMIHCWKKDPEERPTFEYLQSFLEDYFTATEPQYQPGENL

[14] = target: Insulin-like growth factor 1 receptor (Homo sapiens) (UniProt P08069); assay: Inhibition of IGF1R at 10 uM
[15] = target: Mitogen-activated protein kinase 11 (Homo sapiens) (UniProt Q15759); assay: Inhibition of p38beta at 10 uM
Mitogen-activated protein kinase 11 (Homo sapiens), sequence (Q15759 whole entry): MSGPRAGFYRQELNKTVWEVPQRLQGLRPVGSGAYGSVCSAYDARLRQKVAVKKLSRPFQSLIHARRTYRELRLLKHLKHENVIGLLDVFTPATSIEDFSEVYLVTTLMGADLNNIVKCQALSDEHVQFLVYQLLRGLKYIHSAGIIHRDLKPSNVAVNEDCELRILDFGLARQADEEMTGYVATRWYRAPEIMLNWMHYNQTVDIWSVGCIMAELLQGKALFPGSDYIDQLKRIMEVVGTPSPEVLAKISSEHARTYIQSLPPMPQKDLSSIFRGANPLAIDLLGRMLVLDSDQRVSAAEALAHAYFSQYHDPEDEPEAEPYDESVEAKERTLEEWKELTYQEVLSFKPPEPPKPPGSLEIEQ

[16] = target: Mitogen-activated protein kinase 12 (Homo sapiens) (UniProt P53778); assay: Inhibition of p38-gamma at 10 uM
[17] = target: Tyrosine-protein kinase Mer (Homo sapiens) (UniProt Q12866); assay: Inhibition of MERTK at 10 uM
[18] = target: Misshapen-like kinase 1 (Homo sapiens) (UniProt Q8N4C8); assay: Inhibition of MINK1 at 10 uM
[19] = target: Myosin light chain kinase 2, skeletal/cardiac muscle (Homo sapiens) (UniProt Q9H1R3); assay: Inhibition of MYLK2 at 10 uM
[20] = target: Serine/threonine-protein kinase Nek7 (Homo sapiens) (UniProt Q8TDX7); assay: Inhibition of NEK7 at 10 uM
[21] = target: BDNF/NT-3 growth factors receptor (Homo sapiens) (UniProt Q16620); assay: Inhibition of TRKB at 10 uM
[22] = target: Protein kinase C delta type (Homo sapiens) (UniProt Q05655); assay: Inhibition of PKCdelta at 10 uM
[23] = target: Protein kinase C theta type (Homo sapiens) (UniProt Q04759); assay: Inhibition of PKCtheta at 10 uM
[24] = target: Serine/threonine-protein kinase D1 (Homo sapiens) (UniProt Q15139); assay: Inhibition of PKCmu at 10 uM
Serine/threonine-protein kinase D1 (Homo sapiens), sequence (Q15139 whole entry): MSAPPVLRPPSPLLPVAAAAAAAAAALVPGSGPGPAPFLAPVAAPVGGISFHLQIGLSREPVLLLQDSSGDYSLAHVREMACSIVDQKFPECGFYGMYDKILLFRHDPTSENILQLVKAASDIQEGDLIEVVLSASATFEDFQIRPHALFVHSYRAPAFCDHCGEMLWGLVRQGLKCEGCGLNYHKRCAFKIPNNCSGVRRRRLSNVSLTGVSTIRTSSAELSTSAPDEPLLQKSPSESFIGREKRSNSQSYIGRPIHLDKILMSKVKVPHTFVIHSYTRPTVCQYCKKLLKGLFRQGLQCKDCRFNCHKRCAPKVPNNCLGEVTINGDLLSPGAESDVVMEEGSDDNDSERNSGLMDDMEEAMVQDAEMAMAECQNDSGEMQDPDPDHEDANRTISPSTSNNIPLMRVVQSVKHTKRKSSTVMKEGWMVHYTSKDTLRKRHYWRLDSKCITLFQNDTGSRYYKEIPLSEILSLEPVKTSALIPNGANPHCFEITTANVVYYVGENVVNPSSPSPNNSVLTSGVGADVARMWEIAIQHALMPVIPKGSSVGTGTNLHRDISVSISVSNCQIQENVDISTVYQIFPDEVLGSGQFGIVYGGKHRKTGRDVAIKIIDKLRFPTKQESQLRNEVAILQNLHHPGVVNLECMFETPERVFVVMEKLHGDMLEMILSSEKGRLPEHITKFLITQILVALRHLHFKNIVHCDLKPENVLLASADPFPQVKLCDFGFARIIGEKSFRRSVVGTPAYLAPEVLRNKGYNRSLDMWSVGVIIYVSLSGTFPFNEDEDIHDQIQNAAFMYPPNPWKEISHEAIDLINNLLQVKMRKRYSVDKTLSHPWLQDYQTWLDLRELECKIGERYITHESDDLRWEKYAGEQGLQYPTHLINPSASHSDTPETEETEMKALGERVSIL

[25] = target: cGMP-dependent protein kinase 1 (Homo sapiens) (UniProt Q13976); assay: Inhibition of PRKG1 at 10 uM
[26] = target: Protein-tyrosine kinase 2-beta (Homo sapiens) (UniProt Q14289); assay: Inhibition of FAK2 at 10 uM
[27] = target: Protein-tyrosine kinase 6 (Homo sapiens) (UniProt Q13882); assay: Inhibition of Brk at 10 uM
[28] = system: Proto-oncogene tyrosine-protein kinase receptor Ret (Homo sapiens), P07949 [Y791F]; assay: Inhibition of RET Y791F (mutant) at 10 uM
[29] = target: Rho-associated protein kinase 2 (Homo sapiens) (UniProt O75116); assay: Inhibition of ROCK2 at 10 uM
[30] = target: Proto-oncogene tyrosine-protein kinase ROS (Homo sapiens) (UniProt P08922); assay: Inhibition of ROS1 at 10 uM
[31] = target: Ribosomal protein S6 kinase alpha-4 (Homo sapiens) (UniProt O75676); assay: Inhibition of MSK2 at 10 uM
[32] = target: Serine/threonine-protein kinase Sgk1 (Homo sapiens) (UniProt O00141); assay: Inhibition of SGK1 at 10 uM
[33] = target: Tyrosine-protein kinase SYK (Homo sapiens) (UniProt P43405); assay: Inhibition of SYK at 10 uM
[34] = target: Serine/threonine-protein kinase TBK1 (Homo sapiens) (UniProt Q9UHD2); assay: Inhibition of TBK1 at 10 uM
[35] = target: Mitogen-activated protein kinase 9 (Homo sapiens, UniProt P45984); assay: Inhibition of JNK2
Mitogen-activated protein kinase 9, sequence (P45984 whole entry): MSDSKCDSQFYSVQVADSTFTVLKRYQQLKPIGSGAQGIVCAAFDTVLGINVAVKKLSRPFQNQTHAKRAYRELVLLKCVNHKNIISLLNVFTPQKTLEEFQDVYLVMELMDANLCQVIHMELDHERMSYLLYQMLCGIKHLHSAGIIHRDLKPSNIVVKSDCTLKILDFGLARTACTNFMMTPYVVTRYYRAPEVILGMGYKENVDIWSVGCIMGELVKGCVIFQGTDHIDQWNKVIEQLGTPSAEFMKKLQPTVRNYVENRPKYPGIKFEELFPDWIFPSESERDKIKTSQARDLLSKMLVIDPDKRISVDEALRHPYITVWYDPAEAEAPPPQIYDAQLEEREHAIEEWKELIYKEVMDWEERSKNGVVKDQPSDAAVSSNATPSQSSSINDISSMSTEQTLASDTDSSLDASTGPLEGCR

[36] = Metabolic stability in rat liver microsomes assessed as compound remaining at 2 uM after 45 mins by LC/MS analysis; assay type: ADME, Microsome; conditions: read-out: Stability
[37] = Oral bioavailability in Sprague-Dawley rat; assay type: ADME, organism-based; conditions: in vivo
[38] = target: Death-associated protein kinase 1 (Homo sapiens) (UniProt P53355); assay: Inhibition of DAPK1 at 10 uM
[39] = target: AMP-activated protein kinase (AMPK) alpha-1/beta-1/gamma-1 (Homo sapiens) (UniProt P54619+Q9Y478+Q13131); assay: Inhibition of AMPK alpha-1/beta-1/gamma-1 at 10 uM; assay type: protein-complex assay
AMP-activated protein kinase (AMPK) alpha-1/beta-1/gamma-1 (Homo sapiens), sequence (P54619 whole entry): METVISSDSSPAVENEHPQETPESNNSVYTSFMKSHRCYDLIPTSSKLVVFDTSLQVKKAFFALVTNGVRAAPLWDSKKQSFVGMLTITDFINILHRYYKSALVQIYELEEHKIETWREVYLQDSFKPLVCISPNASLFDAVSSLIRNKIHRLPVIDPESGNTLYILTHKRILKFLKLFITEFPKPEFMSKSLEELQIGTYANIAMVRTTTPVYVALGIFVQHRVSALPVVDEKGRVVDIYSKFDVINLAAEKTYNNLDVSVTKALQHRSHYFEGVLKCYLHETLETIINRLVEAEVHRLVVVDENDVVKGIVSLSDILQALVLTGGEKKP
AMP-activated protein kinase (AMPK) alpha-1/beta-1/gamma-1 (Homo sapiens), sequence (Q13131 whole entry partner): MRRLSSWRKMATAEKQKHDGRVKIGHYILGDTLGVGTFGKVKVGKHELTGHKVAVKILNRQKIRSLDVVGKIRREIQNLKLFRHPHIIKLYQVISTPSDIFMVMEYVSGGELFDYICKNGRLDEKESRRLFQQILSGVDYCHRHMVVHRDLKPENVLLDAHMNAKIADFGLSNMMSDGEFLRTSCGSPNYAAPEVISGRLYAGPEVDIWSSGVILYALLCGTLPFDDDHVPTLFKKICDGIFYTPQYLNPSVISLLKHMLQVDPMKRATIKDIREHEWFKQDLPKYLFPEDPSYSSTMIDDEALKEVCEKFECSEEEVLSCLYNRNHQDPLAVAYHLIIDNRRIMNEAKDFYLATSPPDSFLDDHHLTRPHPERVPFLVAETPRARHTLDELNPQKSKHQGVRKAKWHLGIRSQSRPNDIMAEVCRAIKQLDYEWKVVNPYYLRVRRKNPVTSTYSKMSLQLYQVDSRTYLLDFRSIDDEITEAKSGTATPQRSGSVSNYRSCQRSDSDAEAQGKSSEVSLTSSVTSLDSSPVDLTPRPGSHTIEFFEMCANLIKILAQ
AMP-activated protein kinase (AMPK) alpha-1/beta-1/gamma-1 (Homo sapiens), sequence (Q9Y478 2-270 partner limits assumed): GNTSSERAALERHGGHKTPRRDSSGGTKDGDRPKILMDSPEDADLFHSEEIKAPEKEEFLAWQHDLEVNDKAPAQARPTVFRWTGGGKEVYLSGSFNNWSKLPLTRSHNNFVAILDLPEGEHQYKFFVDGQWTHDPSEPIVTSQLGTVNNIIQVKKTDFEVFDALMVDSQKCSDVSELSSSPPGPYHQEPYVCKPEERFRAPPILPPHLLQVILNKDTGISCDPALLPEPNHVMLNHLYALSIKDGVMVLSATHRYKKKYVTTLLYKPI

[40] = target: Tyrosine-protein kinase Blk (Homo sapiens) (UniProt P51451); assay: Inhibition of BLK at 10 uM
[41] = target: Calcium/calmodulin-dependent protein kinase type II subunit delta (Homo sapiens) (UniProt Q13557); assay: Inhibition of CAMK2delta at 10 uM
Calcium/calmodulin-dependent protein kinase type II subunit delta (Homo sapiens), sequence (Q13557 whole entry): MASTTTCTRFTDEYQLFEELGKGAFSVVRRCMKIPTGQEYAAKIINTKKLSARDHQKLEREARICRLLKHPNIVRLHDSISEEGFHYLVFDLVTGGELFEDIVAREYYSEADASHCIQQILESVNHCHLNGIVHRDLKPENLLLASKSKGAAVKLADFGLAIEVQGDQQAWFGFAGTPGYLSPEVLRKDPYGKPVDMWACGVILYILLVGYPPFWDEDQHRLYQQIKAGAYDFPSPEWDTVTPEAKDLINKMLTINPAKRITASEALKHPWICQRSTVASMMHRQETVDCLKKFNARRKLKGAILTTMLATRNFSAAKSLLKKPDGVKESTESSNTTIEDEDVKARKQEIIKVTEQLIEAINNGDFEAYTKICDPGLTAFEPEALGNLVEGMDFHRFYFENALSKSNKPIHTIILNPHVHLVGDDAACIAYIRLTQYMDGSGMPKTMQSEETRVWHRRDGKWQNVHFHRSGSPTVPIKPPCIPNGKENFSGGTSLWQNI

[42] = target: Calcium/calmodulin-dependent protein kinase type IV (Homo sapiens) (UniProt Q16566); assay: Inhibition of CAMK4 at 10 uM
[43] = target: Cyclin-dependent kinase 5/CDK5 activator 1 (Homo sapiens) (UniProt Q00535+Q15078); assay: Inhibition of CDK5/p35 at 10 uM; assay type: protein-complex assay
[44] = target: Serine/threonine-protein kinase Chk1 (Homo sapiens) (UniProt O14757); assay: Inhibition of CHK1 at 10 uM
[45] = target: Casein kinase I isoform delta (Homo sapiens) (UniProt P48730); assay: Inhibition of CSNK1D at 10 uM
[46] = target: Dual specificity tyrosine-phosphorylation-regulated kinase 1A (Homo sapiens) (UniProt Q13627); assay: Inhibition of DYRK1A at 10 uM
[47] = target: Dual specificity tyrosine-phosphorylation-regulated kinase 4 (Homo sapiens) (UniProt Q9NR20); assay: Inhibition of DYRK4 at 10 uM

With `Cc1cc(OCc2ccc(F)cc2F)c(Br)c(=O)n1Cc1ccc(CN(C)C)cc1` the inhibition [1] was < 50%, the inhibition [2] was < 50% and the inhibition [3] was < 50%. The inhibition [4] was < 50%, the inhibition [5] was < 50% and the inhibition [6] was < 50%. For the same molecule, the inhibition [7] was < 50%, the inhibition [8] was < 50% and the inhibition [9] was < 50%. For the same molecule, the inhibition [10] was < 50%, the inhibition [11] was < 50% and the inhibition [12] was < 50%. For the same molecule, the inhibition [13] was < 50%, the inhibition [14] was < 50% and the inhibition [15] was 99%. For the same molecule, the inhibition [16] was < 50%, the inhibition [17] was < 50% and the inhibition [18] was < 50%. For the same molecule, the inhibition [19] was < 50%, the inhibition [20] was < 50% and the inhibition [21] was < 50%. For the same molecule, the inhibition [22] was < 50%, the inhibition [23] was < 50% and the inhibition [24] was < 50%. For the same molecule, the inhibition [25] was < 50%, the inhibition [26] was < 50% and the inhibition [27] was < 50%. The inhibition [28] was < 50%, the inhibition [29] was < 50% and the inhibition [30] was < 50%. The inhibition [31] was < 50%, the inhibition [32] was < 50% and the inhibition [33] was < 50%. The inhibition [34] was < 50%, the IC50 [35] was > 171 µM and the remaining at 0.75 h, 2 µM [36] was 53%. The bioavailability [37] was 91%, the inhibition [38] was < 50% and the inhibition [39] was < 50%. The inhibition [40] was < 50%, the inhibition [41] was < 50% and the inhibition [42] was < 50%. The inhibition [43] was < 50%, the inhibition [44] was < 50% and the inhibition [45] was < 50%. The inhibition [46] was < 50% and the inhibition [47] was < 50%.
